# According to ChEMBL document CHEMBL3997784, “Discovery of new nanomolar inhibitors of GPa: Extension of 2-oxo-1,2-dihydropyridinyl-3-yl amide-based GPa inhibitors” (Eur J Med Chem, 2017):
# Calls of active or inactive are those of the source. The calls are words filed in the database; no cut-off is given here.
# Legend:
# [1] = molecular target: Glycogen phosphorylase, muscle form (Oryctolagus cuniculus) (UniProt P00489); experiment: Inhibition of rabbit muscle glycogen phosphorylase A assessed as release of inorganic phosphate from glucose-1- phosphate in presence of glycogen at 222 uM after 30 mins by malachite green based assay relative to control
# [2] = molecular target: Glycogen phosphorylase, muscle form (Oryctolagus cuniculus) (UniProt P00489); experiment: Inhibition of rabbit muscle glycogen phosphorylase A assessed as release of inorganic phosphate from glucose-1- phosphate in presence of glycogen after 30 mins by malachite green based assay
# [3] = molecular target: Glycogen phosphorylase, muscle form (Oryctolagus cuniculus) (UniProt P00489); experiment: Inhibition of rabbit muscle glycogen phosphorylase A assessed as release of inorganic phosphate from glucose-1- phosphate in presence of glycogen at 2.2 uM after 30 mins by malachite green based assay relative to control
# [4] = molecular target: T1, Glycogen phosphorylase, muscle form (Rattus norvegicus) (UniProt P09812); settings: 22.2 uM
# T1 sequence (whole entry): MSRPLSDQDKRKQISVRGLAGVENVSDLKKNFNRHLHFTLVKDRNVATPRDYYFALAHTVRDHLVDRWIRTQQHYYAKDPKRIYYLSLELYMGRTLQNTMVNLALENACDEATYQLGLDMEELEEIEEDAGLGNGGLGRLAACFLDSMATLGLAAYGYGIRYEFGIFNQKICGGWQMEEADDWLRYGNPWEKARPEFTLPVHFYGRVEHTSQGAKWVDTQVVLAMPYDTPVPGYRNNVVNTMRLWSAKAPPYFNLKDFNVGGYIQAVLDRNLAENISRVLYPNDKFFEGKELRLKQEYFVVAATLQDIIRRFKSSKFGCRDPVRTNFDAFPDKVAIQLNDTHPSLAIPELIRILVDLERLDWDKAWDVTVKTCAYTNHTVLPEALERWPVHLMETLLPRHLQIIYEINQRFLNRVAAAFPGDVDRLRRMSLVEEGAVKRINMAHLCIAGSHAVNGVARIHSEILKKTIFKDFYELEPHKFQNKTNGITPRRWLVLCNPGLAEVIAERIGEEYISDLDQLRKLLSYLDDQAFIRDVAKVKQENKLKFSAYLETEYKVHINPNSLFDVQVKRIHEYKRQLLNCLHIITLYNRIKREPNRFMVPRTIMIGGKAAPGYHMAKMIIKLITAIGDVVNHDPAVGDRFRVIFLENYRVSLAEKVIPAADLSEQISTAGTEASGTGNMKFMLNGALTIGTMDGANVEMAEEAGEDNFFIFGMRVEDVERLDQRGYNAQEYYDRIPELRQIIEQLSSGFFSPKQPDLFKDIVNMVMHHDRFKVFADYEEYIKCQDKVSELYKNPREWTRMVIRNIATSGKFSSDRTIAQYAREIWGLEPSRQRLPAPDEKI
# Description: Inhibition of rat muscle glycogen phosphorylase A assessed as release of inorganic phosphate from glucose-1- phosphate in presence of glycogen at 22.2 uM after 30 mins by malachite green based assay relative to control
# Chain of Glycogen phosphorylase, muscle form (Oryctolagus cuniculus) (P00489 whole entry, looked up): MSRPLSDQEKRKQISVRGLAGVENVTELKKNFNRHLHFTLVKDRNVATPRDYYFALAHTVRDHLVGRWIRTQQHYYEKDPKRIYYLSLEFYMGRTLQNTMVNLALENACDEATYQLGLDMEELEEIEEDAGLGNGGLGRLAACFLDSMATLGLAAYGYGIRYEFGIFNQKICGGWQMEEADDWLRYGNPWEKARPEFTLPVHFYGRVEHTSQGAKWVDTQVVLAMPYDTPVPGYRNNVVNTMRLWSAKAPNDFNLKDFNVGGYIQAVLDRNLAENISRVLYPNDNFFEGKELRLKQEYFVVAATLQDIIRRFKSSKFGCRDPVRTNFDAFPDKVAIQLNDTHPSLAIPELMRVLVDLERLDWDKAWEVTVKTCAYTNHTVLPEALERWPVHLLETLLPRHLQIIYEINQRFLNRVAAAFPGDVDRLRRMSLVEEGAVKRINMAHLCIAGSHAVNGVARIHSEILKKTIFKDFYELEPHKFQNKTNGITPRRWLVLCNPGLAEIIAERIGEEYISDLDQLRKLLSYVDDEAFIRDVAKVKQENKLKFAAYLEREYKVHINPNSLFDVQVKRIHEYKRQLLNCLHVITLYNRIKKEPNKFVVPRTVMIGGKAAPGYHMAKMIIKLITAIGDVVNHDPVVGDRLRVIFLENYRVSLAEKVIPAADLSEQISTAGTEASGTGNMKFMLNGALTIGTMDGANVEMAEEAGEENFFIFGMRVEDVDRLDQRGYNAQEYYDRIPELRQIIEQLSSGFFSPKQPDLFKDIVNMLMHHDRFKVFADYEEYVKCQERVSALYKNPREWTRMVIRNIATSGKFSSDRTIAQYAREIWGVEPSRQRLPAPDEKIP
Compound,inhibition [1],IC50 [2] [nM],further results
O=C(NCc1ccccc1)C1CCCN(C(=O)c2ccccc2Cl)C1=O (centres undefined),38%,–,–
O=c1c(NCc2ccccc2)cccn1Cc1ccccc1,inactive,–,–
Cn1cccc(NCc2ccc(Cl)c(Cl)c2)c1=O,34%,–,–
O=C(Cn1cccc(NCc2ccc(CNc3cccn(CC(=O)NCc4ccc(Cl)c(Cl)c4)c3=O)s2)c1=O)NCc1ccc(Cl)c(Cl)c1,–,260,inhibition [3]: > 85%
O=C(Cn1cccc(NCc2ccccc2)c1=O)NCc1cn(Cc2ccccc2)nn1,60%,–,–
Cc1ccn(CC(=O)NCc2ccc(Cl)c(Cl)c2)c(=O)c1NCc1ccccc1,38%,–,–
O=c1c(NCc2ccc(Cl)c(Cl)c2)cccn1Cc1ccccc1,> 85%,33000,–
O=C(NCc1ccccc1)C1CCCN(C(=O)c2ccccc2)C1=O (centres undefined),inactive,–,–
O=C(NCc1ccc(Cl)c(Cl)c1)C1CCCN(C(=O)c2ccccc2)C1=O (centres undefined),39%,–,–

# Second part, led by results:
inhibition [1],IC50 [2] [nM],Compound,further results
–,230,O=C(Cn1cccc(NC(=O)Nc2ccc(NC(=O)Nc3cccn(CC(=O)NCc4ccc(Cl)c(Cl)c4)c3=O)cc2)c1=O)NCc1ccc(Cl)c(Cl)c1,inhibition [3]: > 85%
> 85%,3100,CCOC(=O)Cn1cccc(NC(=O)Nc2ccc(NC(=O)Nc3cccn(CC(=O)OCC)c3=O)cc2)c1=O,–
29%,–,CCOC(=O)Cn1cccc(NCc2ccc(CNc3cccn(CC(=O)OCC)c3=O)s2)c1=O,–
–,1600,CCCNC(=O)Cn1cccc(NC(=O)Nc2ccc(NC(=O)Nc3cccn(CC(=O)NCCC)c3=O)cc2)c1=O,inhibition [4]: > 85%
inactive,–,O=C(Cn1cccc(NC(=O)c2ccccc2)c1=O)NCCNC(=O)Cn1cccc(NC(=O)c2ccccc2)c1=O,–
